Data published in patent US9981964B2 (Agency for Science, Technology and Research, priority 2013, dated 2018).
“Also recorded” adds a separate entry of the source. Like-named read-outs stand apart in the source and are kept apart here.

What was measured:
mammalian PORCN = test: PORCN-null HT1080 cells transfected with mammalian PORCN, WNT3A and STF reporter, luciferase; assay type: cell-based; settings: STF luciferase, FIG. 1
Experimental: PORCN-null HT1080 cells were transfected with mammalian or Xenopus PORCN expression plasmids, along with WNT3A, STF reporter and mCherry as transfection control. 6 hours after transfection, cells were treated with the compounds or DMSO as indicated, and the following day assayed for luciferase. Xenopus PORCN was resistant to the inhibitory effects of compounds.

HEK293-STF3A cells = test: STF3A assay (STF luciferase reporter in Wnt3A-expressing HEK293 cells); assay type: cell-based; settings: Homo sapiens, 24 h, 1 day of treatment
Method in brief: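 HEK293 cells carrying the STF reporter and expressing Wnt3A, seeded 2×10^4 per well overnight, then treated 1 day with compound at final 50 μM to 1.5 nM. Luciferase activity read by luminescence after Steady-Glo reagent, 10 min at room temperature.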

CFPAC-1 cells = test: Soft agar colony formation assay, CFPAC-1; assay type: cell-based; settings: for IC50: Homo sapiens
Experimental: (§1) AsPC-1 cells were maintained in RPMI164 supplemented with 10% FBS, 2 mM L-glutamine and P/S (100 units/ml penicillin and 100 μg/ml streptomycin). HPAF-II cells were maintained in MEM (Eagles') supplemented with 10% FBS, 2 mM L-glutamine and P/S (100 units/ml penicillin and 100 μg/ml streptomycin). CFPAC-1 cells were maintained in Iscove MEM supplemented with 10% FBS, 2 mM L-glutamine and P/S (100 units/ml penicillin and 100 μg/ml streptomycin).
(§2) 600 μl of 0.6% agar was added to 24-well plate to form the base layer. Then a middle layer of 0.36% agar (containing 5000 cells and serially diluted compound) was added on to the base layer. Finally 500 μl of fresh growth medium was added to the top of the middle layer. The plates were incubated at 37° C. with 5% carbon dioxide in a humidified incubator for 2 weeks. Formation of colonies was observed using a light microscope. When the colony size was larger than 500 μm, 70 μl MTT (5 mg/ml) was added to each well and the plates were incubated at 37° C. for at least 2 hours. Colonies were counted with GelCount® instrument. The colony counts were plotted against compound concentrations using the GraphPad Prism software. The software was also used to perform non-linear curve fitting and calculation of compound concentration that inhibited 50% colony formation.

AsPC-1 cells = test: Soft agar colony formation assay, AsPC-1; assay type: cell-based; settings: for IC50: Homo sapiens
Experimental: as §1, §2

HPAF-II cells = test: Soft agar colony formation assay, HPAF-II; assay type: cell-based; settings: for IC50: Homo sapiens
Experimental: as §1, §2

Palmitoylation of Wnt3a = test: Wnt3A palmitoylation assay (HeLa cells over-expressing V5-Wnt3a, alkyne palmitate, click chemistry); assay type: cell-based; settings: 100 nM compound
Experimental: The assay used to determine the inhibition of the palmitoylation of Wnts by compound was described by Yap et al, (Yap M C, Kostiuk M A, Martin D D, Perinpanayagam M A, Hak P G, Siddam A, Majjigapu J R, Rajaiah G, Keller B O, Prescher J A, Wu P, Bertozzi C R, Falck J R, Berthiaume L G. 2010. Rapid and selective detection of fatty acylated proteins using omega-alkynyl-fatty acids and click chemistry. J Lipid Res. 51(6):1566-1580) with some modification. 3×10^6 HeLa cells were seeded in 10 cm culture dish and incubated at 37° C. overnight. […] After six hours, the cells were washed with PBS and treated with 100 μM alkyne palmitate in medium with 5% BSA. 100 nM compound or DMSO was added and the cells were incubated overnight at 37° C. The cells were lyzed and 600 μg cell lysate was collected and incubated with anti-V5 antibody (Invitrogen) followed by the pull down of V5-Wnt3a with the addition of Protein A/G agarose beads (Thermo scientific). The pulled down lysates containing V5-Wnt3a was click-reacted with biotin-azide (Invitrogen). The biotin-labelled protein lysate was then separated on SDS-PAGE and transferred to a nitrocellulose membrane. The membrane was incubated with primary anti-V5 antibody, followed by secondary anti-mouse Dylight 680 (Thermo scientific) to detect V5-Wnt3a. […]

MMTV-Wnt1 tumor = assay type: in vivo, BALBc mice; settings: for % T/C / % TGI / NTRD / T/C / TRD: Day 14; for tumor growth in treated mice: daily treatment for 14 days, FIG. 2 and FIG. 3
Experimental: 8-10 weeks old Female BALBc mice were anesthetised with 150 mg/kg Ketamine +75 mg/kg Xylazine. Under aseptic conditions, skin near the 4th mammary fat pad was incised, Mammary fat pad was tweaked with forceps and tumor fragment ˜2 mm^3 was implanted. The incision was closed using a tissue adhesive. Animals were randomised into groups of eight and treated daily with the test compounds for 14 days. Tumors were measured in two dimensions using calipers, and volume was calculated using the formula: Tumor Volume (mm^3)=[…]. Maximum tumor volume limit was 2000 mm^3.

Structure (SMILES): O=C(CN1CCCC2=C1C(=O)N(C1CC1)C2=O)Nc1ccc(-c2cccnc2)cn1 [Compound 14, N-([3,3′-bipyridin]-6-yl)-2-(6-cyclopropyl-5,7-dioxo-2,3,4,5,6,7-hexahydro-1 H-pyrrolo[3,4-b]pyridin-1-yl)acetamide]
- inhibition of the activity of mammalian porcupine (mammalian PORCN): inhibit the activity of mammalian porcupine
- IC50 (HEK293-STF3A cells): < 100 nM

Structure (SMILES): O=C(CN1CCCC2=C1C(=O)N(C1CC1)C2=O)Nc1ccc(-c2cccnc2)nn1 [Compound 43, 2-(6-cyclopropyl-5,7-dioxo-2,3,4,5,6,7-hexahydro-1H-pyrrolo[3,4-b]pyridin-1-yl)-N-(6-(pyridin-3-yl)pyridazin-3-yl)acetamide]
- inhibition of the activity of mammalian porcupine (mammalian PORCN): inhibit the activity of mammalian porcupine; also recorded: inhibition of the activity of mammalian porcupine
- IC50 (HEK293-STF3A cells): < 100 nM
- Maximum inhibition (CFPAC-1 cells; CFPAC-1, colony formation): 67%
- IC50 (CFPAC-1 cells; 336 h, CFPAC-1, 50% colony growth inhibition, 2 weeks, read-out: Test 1 IC50): 300 nM
- IC50 (CFPAC-1 cells; 336 h, CFPAC-1, 50% colony growth inhibition, 2 weeks, read-out: Test 2 IC50): 140 nM
- IC50 (CFPAC-1 cells; CFPAC-1, mean of two independent experiments, read-out: Mean IC50): 220 nM
- Maximum inhibition (AsPC-1 cells; AsPC-1, colony formation): 79%
- IC50 (AsPC-1 cells; ASPC1, 336 h, AsPC-1, 50% colony growth inhibition, 2 weeks, read-out: Test 1 IC50): 4 nM
- IC50 (AsPC-1 cells; ASPC1, 336 h, AsPC-1, 50% colony growth inhibition, 2 weeks, read-out: Test 2 IC50): 5 nM
- IC50 (AsPC-1 cells; ASPC1, AsPC-1, mean of two independent experiments, read-out: Mean IC50): 5 nM
- IC50 (HPAF-II cells; 336 h, 50% colony growth inhibition, 2 weeks, read-out: Test 1 IC50): 4 nM
- IC50 (HPAF-II cells; 336 h, 50% colony growth inhibition, 2 weeks, read-out: Test 2 IC50): 2 nM
- IC50 (HPAF-II cells; mean of two independent experiments, read-out: Mean IC50): 3 nM
- Maximum inhibition (HPAF-II cells; colony formation): 100%
- inhibition of palmitoylation of Wnt3a (Palmitoylation of Wnt3a): inhibited; also recorded: inhibition of Palmitoylation of Wnt3a
- % T/C (MMTV-Wnt1 tumor; 1 mg/Kg daily): 77.5%
- % TGI (MMTV-Wnt1 tumor; 1 mg/Kg daily): 24%
- NTRD (MMTV-Wnt1 tumor; 1 mg/Kg daily): 0/8
- T/C (MMTV-Wnt1 tumor; 1 mg/Kg daily): 0.775
- TRD (MMTV-Wnt1 tumor; 1 mg/Kg daily): 0/8
- % T/C (MMTV-Wnt1 tumor; 3 mg/Kg daily): 33.7%
- % TGI (MMTV-Wnt1 tumor; 3 mg/Kg daily): 72%
- NTRD (MMTV-Wnt1 tumor; 3 mg/Kg daily): 0/8
- T/C (MMTV-Wnt1 tumor; 3 mg/Kg daily): 0.337
- TRD (MMTV-Wnt1 tumor; 3 mg/Kg daily): 0/8
- % T/C (MMTV-Wnt1 tumor; 10 mg/Kg daily): 18.5%
- % TGI (MMTV-Wnt1 tumor; 10 mg/Kg daily): 97%
- NTRD (MMTV-Wnt1 tumor; 10 mg/Kg daily): 0/8
- T/C (MMTV-Wnt1 tumor; 10 mg/Kg daily): 0.185
- TRD (MMTV-Wnt1 tumor; 10 mg/Kg daily): 0/8
- tumor growth in treated mice (MMTV-Wnt1 tumor): decreased tumor growth in all the treated mice

Structure (SMILES): O=C(CN1CCCC2=C1C(=O)N(C1CC1)C2=O)Nc1ccc(-c2cncc(F)c2)nn1 [Compound 52, 2-(6-cyclopropyl-5,7-dioxo-2,3,4,5,6,7-hexahydro-1H-pyrrolo[3,4-b]pyridin-1-yl)-N-(6-(5-fluoropyridin-3-yl)pyridazin-3-yl)acetamide]
- IC50 (HEK293-STF3A cells): < 100 nM
- tumor growth in treated mice (MMTV-Wnt1 tumor): decreased tumor growth in all the treated mice

Structure (SMILES): O=C(CN1CCCC2=C1C(=O)N(C1CC1)C2=O)Nc1cc(F)c(-c2cccnc2)cn1 [Compound 151, 2-(6-cyclopropyl-5,7-dioxo-2,3,4,5,6,7-hexahydro-1H-pyrrolo[3,4-b]pyridin-1-yl)-N-(4-fluoro-3,3′-bipyridin-6-yl)acetamide]
- IC50 (HEK293-STF3A cells): < 100 nM

Structure (SMILES): CN1C(=O)C2=C(C1=O)N(CC(=O)Nc1ccc(-c3ccc(F)cc3)nc1)CCC2 [Compound 152, N-(6-(4-fluorophenyl)pyridin-3-yl)-2-(6-methyl-5,7-dioxo-2,3,4,5,6,7-hexahydro-1H-pyrrolo[3,4-b]pyridin-1-yl)acetamide]
- IC50 (HEK293-STF3A cells): < 100 nM

Structure (SMILES): COc1cncc(-c2ccc(NC(=O)CN3CCCC4=C3C(=O)N(C3CC3)C4=O)nn2)c1 [Compound 153, 2-(6-cyclopropyl-5,7-dioxo-2,3,4,5,6,7-hexahydro-1H-pyrrolo[3,4-b]pyridin-1-yl)-N-(6-(5-methoxypyridin-3-yl)pyridazin-3-yl)acetamide]
- IC50 (HEK293-STF3A cells): < 100 nM

Structure (SMILES): CN1C(=O)C2=C(C1=O)N(CC(=O)Nc1ccc(-c3cccc(F)c3)nc1)CCC2 [Compound 154, N-(6-(3-fluorophenyl)pyridin-3-yl)-2-(6-methyl-5,7-dioxo-2,3,4,5,6,7-hexahydro-1H-pyrrolo[3,4-b]pyridin-1-yl)acetamide]
- IC50 (HEK293-STF3A cells): < 100 nM

Structure (SMILES): CN1C(=O)C2=C(C1=O)N(CC(=O)Nc1cc(F)c(-c3cccnc3)cn1)CCC2 [Compound 155, N-(4-fluoro-3,3′-bipyridin-6-yl)-2-(6-methyl-5,7-dioxo-2,3,4,5,6,7-hexahydro-1H-pyrrolo[3,4-b]pyridin-1-yl)acetamide]
- IC50 (HEK293-STF3A cells): < 100 nM

Structure (SMILES): O=C(CN1CCCC2=C1C(=O)N(C1CC1)C2=O)Nc1ccc(-c2cc(F)ccn2)cn1 [Compound 156, 2-(6-cyclopropyl-5,7-dioxo-2,3,4,5,6,7-hexahydro-1H-pyrrolo[3,4-b]pyridin-1-yl)-N-(4-fluoro-[2,3′-bipyridin]-6′-yl)acetamide]
- IC50 (HEK293-STF3A cells): < 100 nM

Structure (SMILES): Cc1cnc(-c2ccc(NC(=O)CN3CCCC4=C3C(=O)N(C3CC3)C4=O)nc2)cn1 [Compound 157, 2-(6-cyclopropyl-5,7-dioxo-2,3,4,5,6,7-hexahydro-1H-pyrrolo[3,4-b]pyridin-1-yl)-N-(5-(5-methylpyrazin-2-yl)pyridin-2-yl)acetamide]
- IC50 (HEK293-STF3A cells): < 100 nM

Structure (SMILES): Cc1ccc(-c2ccc(NC(=O)CN3CCCC4=C3C(=O)N(C)C4=O)cn2)cc1 [Compound 158, 2-(6-methyl-5,7-dioxo-2,3,4,5,6,7-hexahydro-1H-pyrrolo[3,4-b]pyridin-1-yl)-N-(6-(p-tolyl)pyridin-3-yl)acetamide]
- IC50 (HEK293-STF3A cells): < 100 nM
